Earlier results as cited in patent US6350444B1, “Gene therapy for pulmonary edema using adenovirus vectors encoding Na,K-ATPase” (Edema Clearance, Inc., priority 1998, dated 2002).

Columns and labels:
[1] = tested on: isolated rat lungs
[2] = molecular target: rat α1 subunit (Rattus norvegicus, UniProt P06685); conditions: read-out: IC50 of ouabain

Compound | lung liquid clearance [1] | IC50 [2]
N=C(N)NC(=O)c1nc(Cl)c(N)nc1N [amiloride] | decreased | 
C[C@@H]1O[C@@H](O[C@H]2C[C@@H](O)[C@]3(CO)[C@H]4[C@H](O)C[C@]5(C)[C@@H](C6=CC(=O)OC6)CC[C@]5(O)[C@@H]4CC[C@]3(O)C2)[C@H](O)[C@H](O)[C@H]1O [ouabain] | decreased | 1000 µM
